No end group written: not given here.

Assay [1] relates to V. fluvialis WY91-24-3. Nature of the assay: Bacterial membrane permeability assay (PI influx, flow cytometry). The settings on record: peptide 8 μM, 10 mM NaPB pH 7.4, 37°C, 1 h; PI 9 μM; flow cytometry, 3,000 events; representative of three independent experiments. It is filed as cell-based, Vibrio fluvialis. Here is the method: The membrane permeability of bacteria after the treatment of peptides was assessed by flow cytometry as previously described ([33]) with minor modifications. In brief, V. fluvialis WY91-24-3 were cultured to mid-logarithmic phase, then washed twice and resuspended to 10^6 CFU/ml with 10 mM NaPB (pH 7.4). Thereafter, 40 μl of peptides diluted in NaPB was added to 160 μl of V. fluvialis to give a final concentration of 8 μM. LL37 and NaPB was used as the positive and negative control, respectively. After being incubated at 37°C for 1 h, propidium iodide (PI; Sigma-Aldrich) was added to the bacterial suspension at a final concentration of 9 μM. The PI positive bacterial cells were detected using the flow cytometer FACSVerse (BD Biosciences) at 3,000 events and the data were analyzed using the FlowJo software v10 (Tree Star).
Figure 6 Antibacterial mechanisms of LEAPs. (A–J) Membrane permeability of V. fluvialis treated with LEAPs. The bacteria were incubated with LEAPs (8 μM) at 37°C for 1 h, and a bacterial suspension without peptide was included as a control (Ctrl). Then PI (9 μM) was added and the influx of PI was detected by flow cytometry. Data are representative results of three independent experiments. (K) The data in (A–J) were analyzed statistically. The p value was calculated by one-way ANOVA with a Dunnett post hoc test. Different letters indicate significant differences (p<0.05). […]
For orientation: Flow cytometry measures light scatter and fluorescence of single cells or particles in a stream.

The subject of assay [2] is Gram-positive and Gram-negative bacteria. The following applies: cited from earlier work. An excerpt: Mammalian LEAP-2 is a single gene, which is mainly expressed by the liver, and to a certain extent by other tissues ([18]). For example, mouse LEAP-2 is mainly expressed in the liver and small intestine ([18]). […] Therefore, LEAP-2 may have other physiological functions besides sterilization. However, unlike mammals with a single LEAP-2 ...

Turning to “LL-37: human AMP LL-37, positive control of the membrane permeability assay (LLGDFFRKSKEKIGKEFKRIVQRIKDFLRNLVPRTES; Antibacterial peptide LL-37; UniProt P49913 134-170, looked up)”, the “PI positive bacterial cells” value in assay [1] came to 85.2%.
On to “cleaved form 44-77: cleaved form 44-77 of human LEAP-2 (GVSLRPIGASCRDDSECITRLCRKRRCSLSVAQE; ends and bridges not checked; cysteine pairing not given here; UniProt Q969E1 44-77, looked up, fragment)”, for which the antibacterial activity entry in assay [2] was “loses antibacterial activity”.
With “mature peptide 38-77 of human LEAP-2: mature peptide 38-77 of human LEAP-2 (MTPFWRGVSLRPIGASCRDDSECITRLCRKRRCSLSVAQE; ends and bridges not checked; cysteine pairing not given here; UniProt Q969E1 38-77, looked up)”, the antibacterial activity entry in assay [2] is on record as “different killing effects”.
